The text below walks through data of US20260184707A1, “PHARMACEUTICAL COMPOUNDS FOR THE TREATMENT OF COMPLEMENT MEDIATED DISORDERS” (ALEXION PHARMACEUTICALS, INC., priority 2022, published 2026).

For this assay, the target named is T1, Human complement C1s enzyme (Homo sapiens, UniProt P09871).
T1 construct: purified from human serum, Complement Technology, Inc; purchased Complement Technology, Inc; host or cells: human serum (plasma-derived native protein)
T1 sequence (P09871 438-688 limits assumed): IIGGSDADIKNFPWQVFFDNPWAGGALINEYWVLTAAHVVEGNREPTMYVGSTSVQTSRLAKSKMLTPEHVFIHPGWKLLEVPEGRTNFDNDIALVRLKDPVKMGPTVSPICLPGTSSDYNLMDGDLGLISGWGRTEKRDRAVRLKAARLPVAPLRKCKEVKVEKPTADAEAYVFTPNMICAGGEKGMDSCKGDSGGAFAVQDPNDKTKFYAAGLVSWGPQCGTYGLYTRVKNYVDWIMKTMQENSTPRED
T1 sequence (P09871 16-437 partner limits assumed): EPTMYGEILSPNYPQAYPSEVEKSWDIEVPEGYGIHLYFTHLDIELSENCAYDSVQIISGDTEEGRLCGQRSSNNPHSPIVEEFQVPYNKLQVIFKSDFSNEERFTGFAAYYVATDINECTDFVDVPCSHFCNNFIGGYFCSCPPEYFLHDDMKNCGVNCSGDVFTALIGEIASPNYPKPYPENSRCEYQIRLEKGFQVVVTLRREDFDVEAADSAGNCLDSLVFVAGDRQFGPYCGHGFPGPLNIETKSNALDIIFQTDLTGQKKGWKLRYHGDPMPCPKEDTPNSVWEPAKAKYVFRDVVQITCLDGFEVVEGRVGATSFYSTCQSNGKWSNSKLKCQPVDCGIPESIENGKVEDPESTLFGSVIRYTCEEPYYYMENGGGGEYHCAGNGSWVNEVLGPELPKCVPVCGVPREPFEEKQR
The experiment in a line: Human C1s enzyme assay. The assay is classed as biochemical. The following applies: human complement C1s enzyme 1.16 nM, substrate Z-L-Lys-SBzl, A405; read-out: IC50 (Stars). Put shortly: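 Serum-purified human C1s (1.16 nM final) preincubated 5 min at room temperature with compound in 50 mM Tris, 1 M NaCl, pH 7.5. Z-L-Lys-SBzl and DTNB added at 100 μM each; A405 recorded every 30 s. IC50 from nonlinear regression of reaction rates versus compound concentration.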

Molecules are shown by their SMILES. pIC50: −log10 of the molar value.

What is called pIC50 is the negative decadic logarithm of the IC50, by convention in mol/L.

`C[C@@H](Nc1ncc(N2CCN(C)CC2)n(CC(=O)NCc2cc3cnccc3[nH]2)c1=O)c1ccc2oc3ccccc3c2c1` [Compound 428, (R)-N-((1H-pyrrolo[3,2-c]pyridin-2-yl)methyl)-2-(3-((1-(dibenzo[b,d]furan-2-yl)ethyl)-amino)-6-(4-methylpiperazin-1-yl)-2-oxopyrazin-1(2H)-yl)-acetamide]: the pIC50 is more than 7.00. As for `C[C@@H](Nc1ncc(-c2cscn2)n(CC(=O)NCc2cc3cnccc3[nH]2)c1=O)c1ccc2oc3ccccc3c2c1` [Compound 429, (R)-N-((1H-pyrrolo[3,2-c]pyridin-2-yl)methyl)-2-(3-((1-(dibenzo[b,d]furan-2-yl)ethyl)-amino)-2-oxo-6-(thiazol-4-yl)-pyrazin-1(2H)-yl)acetamide], the negative logarithm of the IC50 (pIC50) is more than 7.00. Consider `C[C@@H](Nc1ncc(-c2ccccn2)n(CC(=O)NCc2cc3cnccc3[nH]2)c1=O)c1ccc2oc3ccccc3c2c1` [Compound 430, (R)-N-((1H-pyrrolo[3,2-c]pyridin-2-yl)methyl)-2-(3-((1-(dibenzo[b,d]furan-2-yl)ethyl)-amino)-2-oxo-6-(pyridin-2-yl)-pyrazin-1(2H)-yl)acetamide], for which the negative-log IC50 (pIC50) is more than 7.00. For `C[C@@H](Nc1ncc(-c2nccs2)n(CC(=O)NCc2cc3cnccc3[nH]2)c1=O)c1ccc2oc3ccccc3c2c1` [Compound 431, (R)-N-((1H-pyrrolo[3,2-c]pyridin-2-yl)methyl)-2-(3-((1-(dibenzo[b,d]furan-2-yl)ethyl)-amino)-2-oxo-6-(thiazol-2-yl)-pyrazin-1(2H)-yl)acetamide], the negative-log IC50 (pIC50) is more than 7.00.

As for `C[C@@H](Nc1ncc(-c2cscn2)n(CC(=O)NCc2cc3cnccc3[nH]2)c1=O)c1ccc(-c2ccccc2F)cc1` [Compound 432, (R)-N-((1H-pyrrolo[3,2-c]pyridin-2-yl)methyl)-2-(3-((1-(2′-fluoro-[1,1′-biphenyl]-4-yl)ethyl)amino)-2-oxo-6-(thiazol-4-yl)pyrazin-1(2H)-yl)acetamide], the negative-log IC50 (pIC50) is more than 7.00. For `O=C(Cn1c(-c2ccccc2F)ncc(N[C@H](CO)c2ccc3oc4ccccc4c3c2)c1=O)NCc1cc2cnccc2[nH]1` [Compound 433, (S)—N-((1H-Pyrrolo[3,2-c]pyridine-2-yl)methyl)-2-(5-((1-(dibenzo[b,d]furan-2-yl)-2-hydroxyethyl)amino)-2-(2-fluorophenyl)-6-oxopyrimidin-1(6H)-yl)acetamide], the negative logarithm of the IC50 (pIC50) was more than 7.00. `Cc1cccc(-c2ncc(N[C@H](C)c3ccc4oc5ccccc5c4c3)c(=O)n2CC(=O)NCc2cc3cnccc3[nH]2)c1F` [Compound 434, (R)-N-((1H-pyrrolo[3,2-c]pyridin-2-yl)methyl)-2-(5-((1-(dibenzo[b,d]furan-2-yl)ethyl)amino)-2-(2-fluoro-3-methylphenyl)-6-oxopyr-imidin-1(6H)-yl)acetamide]: the negative logarithm of the IC50 (pIC50) was more than 7.00. On to `Cc1cccc(-c2ncc(NCCCc3ccccc3)c(=O)n2CC(=O)NCc2cc3cnccc3[nH]2)c1F` [Compound 435, N-((1H-pyrrolo[3,2-c]pyridin-2-yl)methyl)-2-(2-(2-fluoro-3-methylphenyl)-6-oxo-5-((3-phenylpropyl)amino)pyrimi-din-1(6H)-yl)acetamide], for which the negative-log IC50 (pIC50) is more than 7.00. With `Cc1ccc(-c2ncc(N[C@H](C)c3ccc4oc5ccccc5c4c3)c(=O)n2CC(=O)NCc2cc3cnccc3[nH]2)c(F)c1` [Compound 436, (R)-N-((1H-pyrrolo[3,2-c]pyridin-2-yl)methyl)-2-(5-((1-(dibenzo[b,d]furan-2-yl)ethyl)-amino)-2-(2-fluoro-4-methyl-phenyl)-6-oxopyrimidin-1(6H)-yl)acetamide], the pIC50 is more than 7.00. `Cc1ccc(-c2ncc(NCCCc3ccccc3)c(=O)n2CC(=O)NCc2cc3cnccc3[nH]2)c(F)c1` [Compound 437, N-((1H-pyrrolo[3,2-c]pyridin-2-yl)methyl)-2-(2-(2-fluoro-4-methylphenyl)-6-oxo-5-((3-phenylpropyl)amino)pyrimi-din-1(6H)-yl)acetamide]: the pIC50 is more than 7.00. As for `Cc1ccc(F)c(-c2ncc(N[C@H](C)c3ccc4oc5ccccc5c4c3)c(=O)n2CC(=O)NCc2cc3cnccc3[nH]2)c1` [Compound 438, (R)-N-((1H-pyrrolo[3,2-c]pyridin-2-yl)methyl)-2-(5-((1-(dibenzo[b,d]furan-2-yl)ethyl)-amino)-2-(2-fluoro-5-methyl-phenyl)-6-oxopyrimidin-1(6H)-yl)acetamide], the negative logarithm of the IC50 (pIC50) is more than 7.00. With `Cc1ccc(F)c(-c2ncc(NCCCc3ccccc3)c(=O)n2CC(=O)NCc2cc3cnccc3[nH]2)c1` [Compound 439, N-((1H-pyrrolo[3,2-c]pyridin-2-yl)methyl)-2-(2-(2-fluoro-5-methylphenyl)-6-oxo-5-((3-phenylpropyl)amino)pyrimi-din-1(6H)-yl)acetamide], the negative-log IC50 (pIC50) is more than 7.00. Consider `C[C@@H](Nc1ncc(N2CCCC2)n(CC(=O)NCc2cc3cnccc3[nH]2)c1=O)c1ccc2oc3ccccc3c2c1` [Compound 440, (R)-N-((1H-pyrrolo[3,2-c]pyridin-2-yl)methyl)-2-(3-((1-(dibenzo[b,d]furan-2-yl)ethyl)-amino)-2-oxo-6-(pyrrolidin-1-yl)pyrazin-1(2H)-yl)acetamide], for which the pIC50 was 6.00 to 7.00.

Take `CC(C)c1cnc(N[C@H](C)c2ccc3oc4ccccc4c3c2)c(=O)n1CC(=O)NCc1cc2cnccc2[nH]1` [Compound 442, (R)-N-((1H-pyrrolo[3,2-c]pyridin-2-yl)methyl)-2-(3-((1-(dibenzo[b,d]furan-2-yl)ethyl)-amino)-6-isopropyl-2-oxopyr-azin-1(2H)-yl)acetamide]: the pIC50 is more than 7.00. In the case of `O=C(Cn1c(-c2ccccc2F)cnc(N[C@H](CF)c2ccc3oc4ccccc4c3c2)c1=O)NCc1cc2cnccc2[nH]1` [Compound 443, (S)-N-((1H-pyrrolo[3,2-c]pyridin-2-yl)methyl)-2-(3-((1-(dibenzo[b,d]furan-2-yl)-2-fluoroethyl)amino)-6-(2-fluorophenyl)-2-oxopyrazin-1(2H)-yl)acetamide], the negative logarithm of the IC50 (pIC50) was more than 7.00.

`C[C@@H](Nc1ncc(N2CCNCC2)n(CC(=O)NCc2cc3cnccc3[nH]2)c1=O)c1ccc2oc3ccccc3c2c1` [Compound 444, (R)-N-((1H-pyrrolo[3,2-c]pyridin-2-yl)methyl)-2-(3-((1-(dibenzo[b,d]furan-2-yl)ethyl)-amino)-2-oxo-6-(piperazin-1-yl)pyrazin-1(2H)-yl)acetamide]: the pIC50 was more than 7.00. Consider `C[C@@H](Nc1cnc(N2CCCCC2)n(CC(=O)NCc2cc3cnccc3[nH]2)c1=O)c1ccc(-c2ccccc2)s1` [Compound 445, (R)—N-((1H-Pyrrolo[3,2-c]pyridine-2-yl)methyl)-2-(6-oxo-5-((1-(5-phenylthiophen-2-yl)ethyl)amino)-2-(piperidin-1-yl)pyrimidin-1(6H)-yl)acetamide], for which the pIC50 was more than 7.00. `C[C@@H](Nc1cnc(-c2cscn2)n(CC(=O)NCc2cc3cnccc3[nH]2)c1=O)c1ccc(-c2ccccc2F)cc1` [Compound 446, (R)-N-((1H-pyrrolo[3,2-c]pyridin-2-yl)methyl)-2-(5-((1-(2′-fluoro-[1,1′-biphenyl]-4-yl)ethyl)amino)-6-oxo-2-(thiazol-4-yl)pyrimidin-1(6H)-yl)acetamide]: the pIC50 was more than 7.00. Take `C[C@@H](Nc1cnc(-c2ccccn2)n(CC(=O)NCc2cc3cnccc3[nH]2)c1=O)c1ccc(-c2ccccc2F)cc1` [Compound 447, (R)-N-((1H-pyrrolo[3,2-c]pyridin-2-yl)methyl)-2-(5-((1-(2′-fluoro-[1,1′-biphenyl]-4-yl)ethyl)amino)-6-oxo-2-(pyridin-2-yl)pyrimidin-1(6H)-yl)acetamide]: the pIC50 is more than 7.00. On to `C[C@@H](Nc1cnc(N2CCCCC2)n(CC(=O)NCc2cc3cnccc3[nH]2)c1=O)c1ccc(Oc2ccccc2)cc1` [Compound 448, (R)-N-((1H-pyrrolo[3,2-c]pyridin-2-yl)methyl)-2-(6-oxo-5-((1-(4-phenoxyphenyl)-ethyl)amino)-2-(piperidin-1-yl)pyrimidin-1(6H)-yl)acet-amide], for which the pIC50 was 6.00 to 7.00. For `C[C@@H](Nc1ncc(-c2ccccn2)n(CC(=O)NCc2cc3cnccc3[nH]2)c1=O)c1ccc(-c2ccccc2F)cc1` [Compound 449, (R)-N-((1H-pyrrolo[3,2-c]pyridin-2-yl)methyl)-2-(3-((1-(2′-fluoro-[1,1′-biphenyl]-4-yl)ethyl)amino)-2-oxo-6-(pyridin-2-yl)pyrazin-1(2H)-yl)acetamide], the negative-log IC50 (pIC50) is more than 7.00. Consider `C[C@@H](Nc1cnc(C2=CCCCC2)n(CC(=O)NCc2cc3cnccc3[nH]2)c1=O)c1coc(-c2ccccc2)n1` [Compound 450, (R)-N-((1H-pyrrolo[3,2-c]pyridin-2-yl)methyl)-2-(2-(cyclohex-1-en-1-yl)-6-oxo-5-((1-(2-phenyloxazol-4-yl)-ethyl)amino)pyrimidin-1(6H)-yl)acetamide], for which the negative-log IC50 (pIC50) is more than 7.00.
